Measurements: PubChem BioAssay AID179 (DTP/NCI, 2004)
pEC50, pIC50: −log10 of the molar value. “And” between values parts separate entries of the source, which are not always exact repeats. Identical values can stand only once. The source made the active and inactive calls.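 The calls were made as follows: active = compounds giving half or more protection of infected cells from virus-caused growth loss, again on retest; inactive = the rest.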

Tested on: CEM cells HIV-1 protection, formazan growth assay
Assay: NCI AIDS Antiviral Assay
Conditions: for pIC50: measured here: growth of uninfected CEM cells
Method in brief: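 Category rules: moderately active means at least 50% protection on retest, and confirmed active means 100% protection reproducibly. The underlying data came from a formazan growth assay in HIV-1-infected CEM cells.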

Row | Structure (SMILES) | pEC50 | pIC50 | outcome
1 | CC(C)C[CH2][Ge]([CH2]CC(C)C)([CH2]CC(C)C)[CH2]CC(C)C | < 3.70 | < 3.70 | 
2 | CC(=O)C(CCC#N)(CCC#N)CCC#N | < 3.70 | < 3.70 | 
3 | Nc1ncnc2c1ccn2CC=C(CO)CO | < 3.70 | < 3.70 | 
4 | COC(=O)/C(=C\C(=O)c1ccc(Br)cc1)NN=C(c1ccccc1)c1ccccc1 | < 3.70 | < 3.70 | 
5 | COCOC1/C=C/CCCCC2=C(C)C=C(C1)O2 (configuration not stated) | < 3.85 | 3.88 | 
6 | CC(C)N(C(=O)C12C3C4C1C1C2C3C41I)C(C)C (configuration not stated) | < 3.72 | < 3.72 | 
7 | OCC(O)C1OCOC2COCOC21 (configuration not stated) | < 3.70 | < 3.70 | 
8 | CCn1c(=O)[nH]c(=O)c2conc21 | < 2.86 | 3.18 | 
9 | O=C(Nc1cccc2ccccc12)N1CCCC(Br)C1 (configuration not stated) | < 3.70 | 3.71 | 
10 | Cc1ccc2nc(NC(=O)C(=O)C3C(=O)NC(=S)NC3=O)sc2c1 | < 3.16 | 3.38 | 
11 | CCOC(=O)NC(=O)c1cn(C2OC(CO)C(O)C2O)c(=O)[nH]c1=O (configuration not stated) | < 3.16 | < 3.16 | 
12 | Cn1c(=O)c2c(nc3sc4ccccc4c(=O)n32)n(C)c1=O | < 3.82 | < 3.82 | 
13 | CCCCCCCCCCCC(O)=C1C(=O)CCCC1=O | < 4.75 | < 4.75 | 
14 | c1ccc(C[P+](c2ccccc2)(c2ccccc2)c2ccccc2)cc1 | < 3.70 | 5.41 | 
15 | COc1ccc(-c2coc3cc(O)ccc3c2=O)c(O)c1OC | < 3.70 | 4.83 | 
16 | O=C1c2ccccc2-c2c1c(-c1ccccc1)c1n2C2(C(=O)c3ccccc3C2=O)C2C(=O)N(c3ccccc3)C(=O)C12 (configuration not stated) | < 3.70 | 3.92 | 
17 | Cc1ccc(S(=O)(=O)NC(=O)NCCSSCCNC(=O)NS(=O)(=O)c2ccc(C)cc2)cc1 | < 3.70 | < 3.70 | 
18 | COc1cccc(C(NC2=NCCC=N2)c2cc3c(cc2O)OCO3)c1O (configuration not stated) | < 3.70 | 4.45 | 
19 | Cn1c(=O)c2c(nc(NCCCCl)n2CC(=O)O)n(C)c1=O | < 3.70 | < 3.70 | 
20 | N#CC1C(=O)NC(=O)C(C#N)C12CCCc1sccc12 (configuration not stated) | < 3.06 | 3.08 | 
21 | CCOC(=O)NC(Nc1ccc(S(=O)(=O)Nc2ncccn2)cc1)(C(=O)OCC)C(F)(F)F (configuration not stated) | < 3.70 | < 3.70 | 
22 | Cc1c(Cl)cccc1NC(=O)CC1Sc2ccccc2NC1=O (configuration not stated) | < 4.56 | < 4.56 and 4.81 | 
23 | CC(C)=C1C(=O)NC(=O)C1C(N)=O (configuration not stated) | < 3.70 | < 3.70 | 

Row | Structure (SMILES) | pEC50 | pIC50 | outcome
24 | N#CC12Cc3cc4c(cc3-c3cccc(c31)CCN2C(=O)c1ccccc1)OCO4 (configuration not stated) |  |  | inactive
25 | CCCCC(CC)C(=O)OC(C)CN(CC(C)OC(=O)C(CC)CCCC)C(=O)C(C)OC(=O)C(CC)CCCC (configuration not stated) |  |  | inactive
26 | CCOc1ccc(NC(=S)NC=C(C#N)C#N)cc1 | < 3.70 | < 3.70 | 
27 | COc1ccc(N=Nc2ccc3oc(=O)c(C(=O)Nc4ccccc4C)cc3c2)cc1 | < 3.70 | 4.18 | 
28 | COc1ccc(C2c3cc4c(cc3OC(N3CCOCC3)C2C)OCO4)cc1 (configuration not stated) | < 3.70 | 4.27 | 
29 | CSC1NC(c2ccccc2)=C(C#N)C(=O)N1C1OCC(OC(C)=O)C(OC(C)=O)C1OC(C)=O (configuration not stated) | < 3.70 | 3.83 | 
30 | COc1ccc(C(=C(I)c2ccccc2)c2ccc(OC)cc2)cc1 | < 3.70 | 3.74 | 
31 | Cc1n[n+](Cc2ccccc2)c2sc(N)nn12 | < 3.70 | 4.39 | 
32 | CC1=C(C#N)C2(N)OC1(C)C1C(=O)C=CC(=O)C12 (configuration not stated) | < 3.70 | 4.63 | 
33 | CCCOC(=O)C(C)(C)C(OP(=O)(OCCC)OCCC)=C(C)C | < 3.70 | 3.98 | 
34 | CCOC(=O)C(CCCCn1cnc2ncnc(Cl)c21)(NC(C)=O)C(=O)OCC |  |  | inactive
35 | CCOC(=O)/C(C#N)=C/c1ccc(C)cc1 | < 3.92 | < 3.92 | 
36 | Cc1cc2c(cc1C)C(=O)C1(C2)Cc2c(ccc(C)c2C)C1=O (configuration not stated) | < 4.00 | < 4.00 | 
37 | CN(C)CCSc1cc(-c2ccccc2)c2ccccc2n1 | < 3.70 | 5.20 | 
38 | O=C1C(N=Nc2ccc(Br)cc2)Sc2nc3ccccc3n21 (configuration not stated) | < 3.70 | < 3.70 | 
39 | OCCN(CCO)c1cccc(N(CCO)CCO)c1 |  |  | inactive
40 | CCOC(=O)c1[nH]cc(C)c1-c1c[nH]c2ccccc12 | < 3.70 | 4.61 | 
41 | CNC(=S)c1nnsc1N | < 3.70 | 6.52 | 
42 | CCOC(=O)/C(C#N)=C/c1ccccc1OC | < 3.95 | < 3.95 | 
43 | COc1ccc(C2Oc3c(cccc3-c3c(-c4ccc(O)cc4)oc4cc(O)cc(O)c4c3=O)C(=O)C2O)cc1O (configuration not stated) | < 3.70 | 3.77 | 
44 | C=CCc1cc(/C(CC)=C(/CC)c2ccc(OCCN(CC)CC)c(CC=C)c2)ccc1OCCN(CC)CC | < 3.70 | 5.08 | 
45 | O=C1c2c(O)cccc2Cc2cccc(O)c21 |  |  | inactive
46 | Cn1cc2ccccc2c1-c1nc(F)nc(F)n1 | < 4.82 | < 4.82 | 

Row | Structure (SMILES) | pEC50 | pIC50 | outcome
47 | O=c1oc2c3c4c(cc2c2c1CCC2)CCCN4CCC3 | < 5.17 | < 5.17 | 
48 | O=C1c2ccccc2C(=O)c2sc(Nc3ccc(Cl)cc3)nc21 | < 4.96 | 5.33 | 
49 | Nc1ncnc2c1Sc1nc(Cl)ccc1N2 | < 4.83 | < 4.83 | 
50 | Cc1ccc2c3c(c(C)nc2c1)C(=O)c1ccccc1-3 | < 4.98 | < 4.98 | 
51 | Cc1oc2c(c1C)S(=O)(=O)C(C#N)C(c1ccccc1)N2 (configuration not stated) | < 3.70 | 3.90 | 
52 | O=C1OC(=O)C2C1C(c1ccccc1)N1C3C(=O)OC(=O)C3C(c3ccccc3)N21 (configuration not stated) |  |  | inactive
53 | N#C/C(=C\n1c(=S)[nH]c2ccccc21)c1nc2ccccc2s1 | < 3.70 | < 3.70 | 
54 | O=C(/C=C/c1ccncc1)c1ccccc1 | < 3.49 | 5.22 | 
55 | O=C(/C=C/c1ccc(O)c(F)c1)CC(=O)/C=C/c1ccc(O)c(F)c1 | < 3.70 | 4.90 | 
56 | C=C(C)[C@@H]1CC[C@]2(C(=O)O)CC[C@]3(C)[C@H](CCC4[C@@]5(C)CC[C@H](C(=O)/C=C/c6ccc(O)c(O)c6)C(C)(C)[C@@H]5CC[C@]43C)[C@@H]12 (some centres not stated) | < 3.70 | 5.64 | 
57 | CC1=NN(c2ccc(S(=O)(=O)O)cc2)/C(=N/NC(N)=S)C1 | < 3.12 | 3.37 | 
58 | O=C1CCCC2=C1CC1=C(CCCC1=O)N2c1ccc([N+](=O)[O-])cc1 | < 3.70 | < 3.70 | 
59 | CP1(=O)CC(=O)CCCCC(=O)C1 |  |  | inactive
60 | N#C/C(=C\NC(N)=S)c1nc2ccccc2s1 |  |  | inactive
61 | CCOC(=O)C1=C(C)NC(C)=C(C(=O)OCC)C1c1ccc([N+](=O)[O-])s1 |  |  | inactive
62 | CCN(CC)C(=O)Oc1c(Br)ccc2cc(C)cc(OC)c12 | < 3.70 | < 3.70 | 
63 | Nc1nnc2nc(CC(=O)/C=C/c3ccccc3)c(=O)[nH]n12 | < 3.77 | < 3.77 | 
64 | S=c1nc2sc3c(c2c(Nc2ccccc2)[nH]1)CCCC3 | < 3.70 | < 3.70 | 
65 | CC1CCC2(CC1)NC1=C(CC(C)CC1)C1=C2CC(C)CC1 (configuration not stated) | < 3.70 | 4.45 | 
66 | Clc1nssc1=Nc1nonc1-c1ccccc1 | < 3.70 | 5.26 | 
67 | Cc1ccc(S(=O)(=O)OC2CCN(C)CC2)cc1 | < 3.70 | < 3.70 | 
68 | O=C(O)/C(Cl)=C(\Cl)C(=O)Nc1ccc(Cl)cc1Cl |  |  | inactive
69 | CN1C(=O)OC2CC/C=C\CCC2C1c1ccccc1 (configuration not stated) |  |  | inactive

Row | Structure (SMILES) | pEC50 | pIC50 | outcome
70 | C=CC(=O)N1C/C(=C\c2ccc(N(C)C)cc2)C(=O)/C(=C/c2ccc(N(C)C)cc2)C1 | < 3.70 | 4.22 | 
71 | O=C(Nc1ccccc1[N+](=O)[O-])/C(=N/Nc1cccc(Cl)c1)c1c(O)c2ccccc2oc1=O | < 4.27 | < 4.27 | 
72 | CCCCCCCCCCCCCCCCOP(=O)(O)OP(=O)(O)OCC1OC(n2ccc(N)nc2=O)CC1O (configuration not stated) | < 4.00 | < 4.00 | 
73 | Cc1cc(C)nc(NS(=O)(=O)c2ccc(NNc3c4ccccc4nc4c(C(=O)Nc5ccc(S(=O)(=O)Nc6cc(C)on6)cc5)cccc34)cc2)n1 | < 3.70 | 4.46 | 
74 | CC(C)(C)OC(=O)NCCNC(=O)OCc1ccccc1 | < 3.70 | < 3.70 | 
75 | Cc1nc2cc[nH]n2c(=O)c1CCc1ccccc1 | < 3.70 | 3.82 | 
76 | O=C(O)C12C3C4C1C1C2C3C41I (configuration not stated) | < 3.32 | < 3.32 | 
77 | CCOC(=O)C1=C(C)/C(=C\c2[nH]c(C)c(C(=O)OCC)c2C)N=C1C | < 3.70 | < 3.70 | 
78 | CC1N=C(SCc2c(F)cccc2Cl)N2C(C)N=C(SCc3c(F)cccc3Cl)N12 (configuration not stated) | < 4.69 | < 4.69 | 
79 | COC(=O)CCC(=O)Nc1cc(C)ccc1C | < 2.97 | < 2.97 | 
80 | O=C(NCCCCN1CC2CCCC2C1)C(C1CCCCC1)C1CCCCC1 (configuration not stated) | < 3.70 | 4.97 | 
81 | CC(=O)NC1C(CO)O[C@@H]2OC(C)(C)O[C@H]12 (some centres not stated) | < 3.70 | < 3.70 | 
82 | CCOP(=O)(CCP(=O)(OCC)OCC)OCC.C[CH2][Sn]([Cl])([Cl])[CH2]C |  |  | inactive
83 | CC(=O)Nc1ccc(S(=O)(=O)Nc2ccc(S(=O)(=O)c3ccc(-n4sc5ccccc5c4=O)cc3)cc2)cc1 | 4.78 | 3.99 | 
84 | COc1ccc2c(c1)C(=O)CC1c3cnccc3C(=O)N21 (configuration not stated) | < 3.70 | 3.94 | 
85 | CCOC(=O)/C(C1=NCCN1C)=C(\O)c1ccccc1 | < 3.04 | < 3.04 | 
86 | CC(N)C(=O)NC(C)C(=O)NC(C)C(=O)NC(C)C(=O)NC(C)C(=O)NC(C)C(=O)O (configuration not stated) | < 4.00 | < 4.00 | inactive
87 | COC(=O)Cc1nn2c(nc1=O)sc1ccc3ccccc3c12 | < 4.16 | < 4.16 | 
88 | O=C(O)CCCC#CCCCC(=O)O | < 3.70 | < 3.70 | 
89 | CCOC(=O)n1[nH]c(=O)n(-c2ccccc2)c1=O | < 3.70 | < 3.70 | 
90 | O=c1c2nc3ccccc3c(=O)n2ncn1-c1ccccc1Cl | < 3.70 | < 3.70 | 
91 | N/C(=N/N=C/c1cccc([N+](=O)[O-])c1)NO |  |  | inactive
92 | COC(=O)c1cc(=O)n(-c2ccc3nn(C)nc3c2)cc1C(=O)OC | < 3.70 | < 3.70 | 
